Laboratory results as given in ChEMBL document CHEMBL4765335, “Privileged scaffold-based design to identify a novel drug-like 5-HT receptor-preferring agonist to target Fragile X syndrome” (Eur J Med Chem, 2020).

Experiment: in vitro
Settings: rat, liver microsomes

Row | SMILES | remaining at 0.5 h, 10 µM
1 | COc1ccc(-c2ccccc2N2CCN(CCCCOc3ccccc3C#N)CC2)cc1 | 7%
2 | COc1ccc(-c2ccccc2C2CCN(CCCCOc3cnccn3)CC2)cc1 | 6%
3 | COc1ccc(-c2ccccc2N2CCN(C[C@@H](O)COc3ccc(-c4cn5ccccc5n4)cc3)CC2)cc1 | 48%
